Measured values published in US8029980B2, “Identification and use of agents that modulate oncogenic transcription agent activity” (The Board of Trustees of the University of Illinois, priority 2006, dated 2011).

Legend:
FoxM1 [1] = biological target: T1, FoxM1 (Homo sapiens, UniProt Q08050); assay: FoxM1-responsive firefly luciferase reporter assay in C3-Luc cells; assay type: cell-based; details: C3-Luc cells
T1 construct: expressed in transfected cells; host or cells: U2OS clone C3 / C3-Luc
T1 sequence (Q08050 1-748 isoform Q08050-2): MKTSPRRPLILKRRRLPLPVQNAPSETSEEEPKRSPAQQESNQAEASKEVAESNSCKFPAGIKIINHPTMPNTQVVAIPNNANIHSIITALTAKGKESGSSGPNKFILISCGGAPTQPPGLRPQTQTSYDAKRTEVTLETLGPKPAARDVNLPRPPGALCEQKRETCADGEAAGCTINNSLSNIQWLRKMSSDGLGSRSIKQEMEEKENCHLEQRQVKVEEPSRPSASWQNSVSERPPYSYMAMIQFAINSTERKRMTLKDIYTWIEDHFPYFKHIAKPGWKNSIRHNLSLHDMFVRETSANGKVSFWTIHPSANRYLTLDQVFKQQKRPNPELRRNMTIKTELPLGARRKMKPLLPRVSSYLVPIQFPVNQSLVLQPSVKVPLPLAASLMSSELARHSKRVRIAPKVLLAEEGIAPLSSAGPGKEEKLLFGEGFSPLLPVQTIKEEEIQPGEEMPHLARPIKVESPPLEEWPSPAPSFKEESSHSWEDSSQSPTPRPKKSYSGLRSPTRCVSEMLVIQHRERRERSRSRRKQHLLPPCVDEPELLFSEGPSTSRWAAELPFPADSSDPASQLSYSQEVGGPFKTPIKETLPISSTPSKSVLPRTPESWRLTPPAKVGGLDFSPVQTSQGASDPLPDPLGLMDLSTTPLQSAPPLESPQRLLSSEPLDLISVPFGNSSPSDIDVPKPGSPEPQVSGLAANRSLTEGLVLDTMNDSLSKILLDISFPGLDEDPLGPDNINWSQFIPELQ
Experimental: (§1) FIG. 6. Thiostrepton and Siomycin A both inhibit FoxM1 transcriptional activity. […] The next day, the luciferase activity was measured with the Dual-Luciferase reporter assay system (E1910; Promega) according to the manufacturer's instructions.
(§2) The development of U2OS clone C3 cell line with doxycyclin inducible FoxM1-GFP fusion protein has been described before (17). This cell line was transfected with a plasmid expressing firefly luciferase under the control of 6× FoxM1 responsive (FoxRE) promoter (17), along with pcDNA3.1 (Invitrogen, Carlsbad, Calif.) plasmid that expresses neomycin phospho-transferase. […] This clone was further transfected with pRL-CMV (Promega) that expresses renilla luciferase along with pLPCX-puro (Clontech), and the cells were selected in 2 μg/ml puromycin. This cell line which expresses FoxM1-dependent firefly luciferase and constitutive renilla luciferase was named as C3-Luc and used for the screening of compound libraries (Challenge set and Diversity set) from the National Cancer Institute.
(§3) For high-throughput screening, the C3-Luc cells were grown in 96-well plates and treated overnight with a combination of 1 μg/ml doxycycline and 10 μM of compounds from the library. Next day, the firefly and renilla luciferase activities were measured with the Dual Glo system (E2940; Promega).
(§4) For the other luciferase assay experiments, the cells were treated as indicated in the FIG. 1 legend and the luciferase activity was measured using the Dual Luciferase reporter assay system (E1910; Promega) according to the manufacturer's instructions.

FoxM1 [2] = assay: as above; assay type: cell-based, human; details: C3-Luc cells without doxycycline induction, increasing concentration
Experimental: as §1, §2, §3, §4

[3] = tested on: Leukemia cell lines CEM, HL60 and U937; assay: FoxM1 and cleaved caspase-3 immunoblot in leukemia cell lines; assay type: cell-based, human; details: 5 μM, 48 hrs
Experimental: FIG. 10. […] Leukemia cell lines CEM, HL60 and U937 were treated with 5 μM Siomycin A and thiostrepton, respectively, for 48 hrs and the cell lysates were analyzed for the levels of FoxM1 and cleaved caspase-3 by immunoblotting.
Immunoblotting was performed as described (18-20) with antibodies specific for p21 (556431; BD Pharmingen), survivin (sc-10811; Santa Cruz), cleaved caspase-3 (9664; Cell Signaling), and β-actin (A5441; Sigma) antibodies. Immunoblot for FoxM1 was done using the previously generated rabbit antisera (2), and phospho-FoxM1 was detected using the MPM2 monoclonal antibody (Upstate Biotechnology) which recognizes the phosphorylated protein sequence phosphoserine/phosphothreonine-proline.
Next we treated leukemia cell lines with mutant p53 CEM, HL60 and U937 with 5 μM of these compounds for 48 hrs and the cell lysates were analyzed for the levels of FoxM1 and cleaved caspase-3 by immunoblotting.

[4] = tested on: HCT116 colon cancer cells; details: another study (ref. 27); cited from earlier work

C=C(NC(=O)C(=C)NC(=O)c1csc(C2=N[C@@H]3c4csc(n4)[C@H]4NC(=O)c5csc(n5)[C@H]([C@](C)(O)[C@@H](C)O)NC(=O)[C@H]5CSC(=N5)/C(=C/C)NC(=O)[C@H]([C@@H](C)O)NC(=O)c5csc(n5)[C@]3(CC2)NC(=O)[C@H](C)NC(=O)C(=C)NC(=O)C(=C)NC(=O)[C@H](C(C)C)N[C@@H]2C=Cc3c([C@H](C)O)cc(nc3[C@H]2O)C(=O)O[C@@H]4C)n1)C(N)=O [Siomycin A]
relative firefly luciferase activity (FoxM1 transcriptional activity) (FoxM1 [1]; 1 μg/mL doxycycline (60-fold induction), 5 μM compound, 24 hrs): efficiently reduced the value to basal levels
relative firefly luciferase activity (exogenous FoxM1 transcriptional activity) (FoxM1 [1]; 1 μg/ml doxycycline induction (~16-fold), 10 μM compound, overnight): efficiently reduced the value to basal levels
firefly luciferase activity conferred by the FoxM1-responsive promoter (endogenous FoxM1) (FoxM1 [2]): dose-dependent decrease
FoxM1 expression [3]: inhibit FoxM1 expression
apoptosis (cleaved caspase-3) [3]: induce apoptosis
cell death mechanism in HCT116 cells [4]: induced Endoplasmic reticulum stress, and lysosomal membrane permeabilization followed by cell death
